{"source": "patent US11517575B2", "about": "“Use of minaprine to reduce tumor growth” (Institut Gustave-Roussy, priority 2019, dated 2022)", "key": {"HCT116 cells": {"test_system": "HCT116 cells", "assay": "Screening of chemical libraries for IR-mediated cellular cannibalism (imaging flow cytometry, confocal validation)", "type": "cell-based, human", "details": "8 Gy irradiated HCT116 cells, 10 μM compound, 24 h culture", "experimental": "FIG. 4 Identification of cannibalism modulators triggered by ionizing radiation. Compounds from the Prestwick (A) and CEA (F) libraries were tested for their capacities to induce cellular cannibalism after ionizing radiation. Cannibal cells were detected after homotypic cultures of 8 gray γ-irradiation HCT116 cells in the presence or absence of 10 μM of the Prestwick (A) and CEA […] library compounds. Each dot represents one compound. Representative images are shown in (B, G). (C, H) HCT116 cells were treated with the indicated drugs. After 24 h of treatment, cell death was monitored by staining with 3,3 dihexyloxacarbocyanine iodide (DiOC6(3)) and PI^+, and the percentage of dying (DiOC6(3)^low PI^−, open bars) and dead (DiOC6(3)^low PI^+, closed bars) cells was determined by cytofluorometry. Validation of the cannibalism inducers by fluorescent microscopy. Representative images (D, I) and quantification (E, J) are shown. Results are means s.e.m. of triplicate determinations.\nUntreated HCT116 cells were labeled with CMFDA (green fluorescence, CMFDA^+) or CMTMR, (red fluorescence, CMTMR) and treated HCT116 cells with CMFDA (green fluorescence, CMFDA^+). The following cell mixtures were performed: untreated CMTMR^+ HCT116 cells were mixed with untreated CMFDA^+ HCT116 cells, or untreated CMTMR^+ HCT116 cells were mixed with treated CMFDA^+ HCT116 cells. Then, cells were co-cultured during 24 hours in the presence or absence of the pharmacological inhibitor of ROCK, Y27632 (30 μM), the pan-caspase inhibitor, Z-VAD-fmk (ZVAD, 100 μM), the inhibitor of caspase-1, Ac-YVAD-cmk (YVAD, 100 μM), the necroptosis inhibitor, Necrostatin-1 (NEC1, 30 μM), the inhibitor of the vacuolar type H(+)-ATPase (V-ATPase) inhibiting autophagy, Bafilomycin A1 (BafA1, 50 nM), the inhibitor of Cdks with an anti-mitotic activity, Roscovitine (Rosco, 10 μM). After 24 hours of co-culture, both detached and adherent cells were collected and stained with Hoechst […] (10 μg/mL) during 1 hour at 37° C. in warmed complete medium. To detect phosphatidylserine (PS) exposure and plasma membrane permeability, labeled HCT116 cells were successively incubated with Biotin-AnnexinV (BD Pharmingen) as recommended by manufacturer, […] BV786-Streptavidin (BD Biosciences) and 3 μM DRAQ7 (BioStatus) during 15 minutes at 25° C. After washing with PBS solution, samples were immediately analyzed using an imaging flow cytometer FlowSight® (Amnis®, part of EMD Millipore). Data were acquired at a 20× magnification, using INSPIRE software. The 405 nm, 488 nm, and 561 nm lasers were used for excitation. Brightfield, Annexin V-BV786, DRAQ7, CMFDA, CMTMR and Hoechst […] stainings were detected using respectively channels for 420-480 nm, 745-800 nm, 642-745 nm, 480-560 nm, 595-642 nm and 430-505 nm. At least 1000 events of cells per sample were analyzed. Additional single-labeled controls were prepared to normalize fluorescent signal across different channels. Acquired data were analyzed using the IDEAS analysis software (v6.1; Merck-Millipore). Gating strategy was the following. Cells were gated for focused cells using the Gradient RMS feature. Cells were gated for single cells using the aspect ratio and area features. For the cannibalism detection, cells were gated in the double positive CMFDA^+ and CMTMR^+ staining.\nTo detect PS exposure, plasma membrane permeability and cell cycle progression, cells were after co-culture sequentially labeled with specific fluorescent probes (such as FITC-conjugated AnnexinV, propidium iodide, and Hoechst 33342) and analyzed by flow cytometry. Both detached and adherent cells were collected and stained with Hoechst […] (10 μg/ml) during 1 hour at 37° C. in warmed complete medium. After washing with PBS, HCT116 cells were suspended in 1× binding buffer supplemented with fluorescein isothiocyanate (FITC)-conjugated Annexin V (BD Biosciences) and propidium iodide (PI, 1 μg/mL) (Sigma), as per manufacturer's instructions. […]"}, "MCA205 cells [1]": {"test_system": "MCA205 cells", "assay": "Anti-tumor vaccination assay, MCA205 cells in C57BL/6 mice", "type": "in vivo, mouse", "details": "rechallenge one week later", "experimental": "(§1) FIG. 5. Identification of cannibalism modulators as immunogenic cell death inducers. MCA205 (A) or CT26 (E, I, M, Q) cells were treated with the indicated drugs. After 24 h of coculture with the indicated treatment, cell death was monitored by staining DiOC6(3) and PI, and the percentage of dying (DiOC6(3)^low PI^−, open bars) and dead (DiOC6(3)^low PI^+, closed bars) cells was determined by cytofluorometry. (B-D) MCA205 cells or (F-H, J-L, N-P, R-T) CT26 cells cocultured after x irradiation with the indicated compounds were inoculated subcutaneously into the right flank of […] or BALB/c mice, respectively. Seven days later, the mice were rechallenged with live cells injected into the opposite flank, and tumor growth was monitored (five mice per group).\n(§2) The combination of IRCCE with IR induces efficient antitumor immunity. Considering that immunogenic cell death (ICD) inducers were identified (such as Digoxin, Digitoxin, Lanatoside C or Doxorubicin hydrochloride)^3, 4, 48-51) as IRCCE, the ability of these compounds to induce an antitumor immunity after radiotherapy was evaluated. […] Tumors were evaluated weekly using a common caliper. […] One week later, 5×10^5 untreated control cells were inoculated into the contralateral flank of mice and tumors were evaluated weekly using a common caliper. […]"}, "CT26 cells": {"test_system": "CT26 cells", "assay": "Anti-tumor vaccination assay, CT26 cells in BALB/c mice", "type": "in vivo, mouse", "details": "8 Gy + 10 μM compound 24 h", "experimental": "as §1\nFIG. 6. Tumor vaccination experiments. CT26 cells were treated for 24 hours with 10 μM VP331 (A, F, K), 10 μM Minaprine (B, G, L), 10 μM Lopa87 (C, H, M), 10 μM SG6163F (D, I, N), 10 μM Azaguanine-8 (8-aza) (E, J, O) alone or combined with 8 Gy ionizing radiation and inoculated (s.c.) into immunocompetent BALB/c mice, which were rechallenged at the opposite flank 7 days later with the same cancer cells. The percentage of tumor-free mice was evaluated three times a week for the following 38 days. Percentage of total tumor free mice (A-E), tumor free-mice at the first injection site (F to J, P) or at the second injection site (K to O, Q) are shown. (*P<0.05, **P<0.01, ***P<0.001, two-way ANOVA).\nThe combination of IRCCE with IR induces efficient antitumor immunity. Considering that immunogenic cell death (ICD) inducers were identified (such as Digoxin, Digitoxin, Lanatoside C or Doxorubicin hydrochloride)^3, 4, 48-51) as IRCCE, the ability of these compounds to induce an antitumor immunity after radiotherapy was evaluated. First, a preclinical approaches was developed to study the immunological effects of IRCCE on two mouse models of carcinoma (colon CT26 carcinoma and fibrosarcoma MCA205). Initially, the ability of the combination of IRCCE+IR to trigger a specific anti-tumor immune response was appreciated using immunocompetent mice through anti-tumor vaccination assays. According to previously published studies^52, the injection of cancer cells succumbing to an immunogenic cell death (ICD) into immunocompetent mice must elicit a protective immune response that is specific for tumor antigens. Thus, 3×10^5 MCA205 cells were first treated with 10 μM of SG6163F for 24 hours. Then, treated cells were inoculated subcutaneously in 200 μl PBS into the lower flank of 8-week-old female C57BL/6 mice. One week later, 3×10^4 untreated control cells were inoculated into the contralateral flank of mice. Tumors were evaluated weekly using a common caliper. Animals bearing tumors that exceeded 20-25% body mass were euthanatized. […] Then, 3×10^6 CT26 cells were irradiated with 8 Gy in presence of 10 μM of SG6163F (FIGS. 5E and 5F), VP331 (FIGS. 5I and 5J), Minaprine dihydrochloride (FIGS. 5M and 5N) or LOPA87 (FIGS. 5Q and 5R) for 24 hours. Then, cells were inoculated as previously described subcutaneously in […] into the lower flank of 8-week-old female BALB/c mice. One week later, 5×10^5 untreated control cells were inoculated into the contralateral flank of mice and tumors were evaluated weekly using a common caliper. As previously mentioned, animals bearing tumors that exceeded 20-25% body mass were euthanatized. The percentage of dying cells in each condition was evaluated by determining with DiOC(6)3/IP staining (FIGS. 5E, 5I, 5M and 5Q). Finally, the ability of these compounds to repress the growth of cancer cells that have been injected 7 days after injection of irradiated and treated cancer cells was appreciated.\nA second anti-tumor vaccination assay was done on CT26 mouse models of carcinoma as previously described. […]"}, "MCA205 cells [2]": {"test_system": "MCA205 cells", "assay": "Cell death of treated MCA205 cells (DiOC6(3)/PI cytofluorometry)", "type": "cell-based, mouse", "details": "10 μM compound alone, 24 h", "experimental": "as §1, §2"}}, "data": [{"smiles": "O=C1NC(c2ccccc2)=N/C1=C\\c1cc2ccccc2c2ccccc12", "note": "[SG6163F]", "values": [{"measurement": "enhancement of IR-mediated cellular cannibalism", "setting": "HCT116 cells", "result": "efficient cellular cannibalism enhancer"}, {"measurement": "protective response after inoculation of untreated cells", "setting": "MCA205 cells [1]; MCA205 cells treated with 10 μM compound alone, s.c. in C57BL/6 mice", "result": "did not exhibit a protective response"}, {"measurement": "mice with protective response", "setting": "MCA205 cells [1]; MCA205 cells treated with 8 Gy of IR and 10 μM compound, C57BL/6 mice", "result": "3 of 5"}, {"measurement": "frequency of mice showing a protective response", "setting": "CT26 cells; first assay: CT26 cells, rechallenge one week later", "result": "significant increase in the frequency of mice showing a protective response"}, {"measurement": "frequency of mice showing a protective response", "setting": "CT26 cells; second assay: CT26 cells, rechallenge 7 days later", "result": "Significant increases in the frequency of mice showing a protective response"}, {"measurement": "increase of cell death in vitro", "setting": "MCA205 cells [2]", "result": "not able to induce a significant increase of cell death"}]}]}
